Source: patent US20040142317A1, “Use of amino acid transporter atbo,+ as a delivery system for drugs and prodrugs” (priority 2003, published 2004)

Tests used:
[1] = molecular target: T1, mouse ATB^0,+ (Mus musculus, UniProt Q9JMA9)
T1 sequence (Q9JMA9 1-638): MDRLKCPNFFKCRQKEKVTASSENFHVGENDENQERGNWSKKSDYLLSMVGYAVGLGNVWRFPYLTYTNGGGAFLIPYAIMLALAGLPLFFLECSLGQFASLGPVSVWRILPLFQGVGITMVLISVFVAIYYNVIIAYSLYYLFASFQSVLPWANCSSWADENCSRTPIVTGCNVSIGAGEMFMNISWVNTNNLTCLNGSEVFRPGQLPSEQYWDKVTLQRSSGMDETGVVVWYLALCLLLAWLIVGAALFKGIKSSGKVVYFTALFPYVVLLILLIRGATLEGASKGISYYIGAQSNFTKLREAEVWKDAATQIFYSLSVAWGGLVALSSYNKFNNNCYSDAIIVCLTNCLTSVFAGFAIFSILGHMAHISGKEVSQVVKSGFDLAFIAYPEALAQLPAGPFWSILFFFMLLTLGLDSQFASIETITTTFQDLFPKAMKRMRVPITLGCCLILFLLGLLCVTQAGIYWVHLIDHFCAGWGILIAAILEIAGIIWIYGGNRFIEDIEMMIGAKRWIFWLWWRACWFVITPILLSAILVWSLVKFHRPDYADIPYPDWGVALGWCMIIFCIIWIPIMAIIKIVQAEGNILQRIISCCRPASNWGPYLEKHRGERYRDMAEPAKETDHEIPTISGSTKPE

[2] = molecular target: T1, mouse ATB^0,+; remark: listed apart in the source
[3] = molecular target: T2, OCTN2 (Homo sapiens, UniProt O76082); details: literature values; cited from earlier work
T2 sequence (O76082 1-557): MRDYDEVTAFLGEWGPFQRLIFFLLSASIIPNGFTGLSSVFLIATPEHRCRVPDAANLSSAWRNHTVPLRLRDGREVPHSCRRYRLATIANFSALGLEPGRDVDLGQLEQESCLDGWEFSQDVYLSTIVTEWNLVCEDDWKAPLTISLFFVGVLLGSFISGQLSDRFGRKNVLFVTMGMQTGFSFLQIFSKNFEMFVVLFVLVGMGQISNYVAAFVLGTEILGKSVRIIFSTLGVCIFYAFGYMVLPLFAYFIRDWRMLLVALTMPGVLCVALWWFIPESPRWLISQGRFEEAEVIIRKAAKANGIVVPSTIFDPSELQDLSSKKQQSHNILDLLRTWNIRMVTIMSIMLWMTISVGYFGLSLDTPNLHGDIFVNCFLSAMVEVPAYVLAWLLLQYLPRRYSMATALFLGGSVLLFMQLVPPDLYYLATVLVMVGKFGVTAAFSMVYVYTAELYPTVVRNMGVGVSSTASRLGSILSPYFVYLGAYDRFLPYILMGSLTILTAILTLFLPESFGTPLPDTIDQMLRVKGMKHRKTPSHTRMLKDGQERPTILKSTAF

[4] = molecular target: T1, mouse ATB^0,+; assay: Transport of radiolabeled substrates in HRPE cells expressing cloned mouse ATB0,+; assay type: cell-based
[5] = molecular target: T1, mouse ATB^0,+; assay: cell-based
[6] = molecular target: T3, ATB^0 (Homo sapiens, UniProt Q15758); assay: cell-based
T3 sequence (Q15758 1-541): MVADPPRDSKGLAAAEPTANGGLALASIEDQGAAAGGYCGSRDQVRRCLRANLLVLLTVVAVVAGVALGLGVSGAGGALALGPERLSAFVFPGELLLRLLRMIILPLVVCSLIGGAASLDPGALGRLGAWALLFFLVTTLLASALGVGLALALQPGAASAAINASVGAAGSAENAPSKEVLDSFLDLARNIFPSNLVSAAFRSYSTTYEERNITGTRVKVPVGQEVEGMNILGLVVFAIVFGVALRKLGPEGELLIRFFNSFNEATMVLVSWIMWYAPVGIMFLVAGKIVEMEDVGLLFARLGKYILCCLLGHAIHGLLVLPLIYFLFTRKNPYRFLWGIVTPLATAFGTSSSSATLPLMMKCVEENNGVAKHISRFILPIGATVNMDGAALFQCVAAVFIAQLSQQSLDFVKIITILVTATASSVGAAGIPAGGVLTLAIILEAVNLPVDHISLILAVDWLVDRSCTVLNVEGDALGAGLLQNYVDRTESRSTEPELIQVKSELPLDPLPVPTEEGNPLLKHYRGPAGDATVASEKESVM

[7] = test system: ATB^0,+ mRNA; assay: ATB0,+ mRNA levels in mouse intestine after bacterial lipopolysaccharide injection (semi-quantitative RT-PCR); assay type: in vivo; details: 5 mg/kg i.p., 16 h; GAPDH as internal control
Experimental: Mice were injected i.p. with either saline (control) or bacterial lipopolysaccharide (5 mg/kg body wt). 16 h following injection, mice were killed and the various segments of the intestine (J, jejunum; L, ileum; C, colon) were collected for mRNA isolation. Five-week-old IL2^+/+ and IL2^−/− mice were killed and the various segments of the intestine were collected for mRNA isolation. Semiquantitative RT-PCR with low number of PCR cycles was carried out with primer pairs specific for mouse ATB^0,+, mouse glyceraldehyde-3-phosphate dehydrogenase (GAPDH), and mouse cyclophilin C (CypC) and the RT-PCR products were detected by Southern hybridization and the signals were quantified.
Since D-serine is an important modulator of glutamatergic neurotransmission and other D-amino acids may also have significant biological effects, it is of clinical relevance to know if there are any pathological conditions in which the intestinal absorption of D-amino acids may be altered. Therefore, the present inventors assessed the expression of ATB^0,+ in the intestinal tract under inflammatory conditions that are known to affect intestinal function. The present inventors used two different animal models for this purpose. […] The steady-state levels of ATB^0,+ mRNA were examined by a semi-quantitative RT-PCR in the jejunum, ileum, and colon. […]

[8] = molecular target: T1, mouse ATB^0,+; remark: listed apart in the source
[9] = substrate: N=C(NCCC[C@H](N)C(=O)O)N[N+](=O)[O-]; assay: cells, lysate or membranes; details: other: oocytes, various concentrations; pH 7.5
[10] = substrate: NC(=N[N+](=O)[O-])Nc1cccc([C@H](N)C(=O)O)c1; assay: cells, lysate or membranes; details: pH 7.5
[11] = HRPE cells, radiolabeled substrate

## C[N+](C)(C)CC(O)CC(=O)[O-] (stereo not drawn) [carnitine, β-hydroxy-γ-trimethylaminobutyrate]
[1]
  IC50: 600 ± 100 µM
[2]; 10 mM carnitine, esters under similar conditions
  induced inward currents: ~300 nA
[2]; oocytes, carnitine 1 mM
  Hill coefficient (nH) for Cl− activation of substrate-induced currents: 0.9±0.2
  Hill coefficient (nH) for Na+ activation of substrate-induced currents: 1.9±0.5
  K0.5 for Cl− of substrate-induced currents: 15 ± 5 mM
  K0.5 for Na+ of substrate-induced currents: 25 ± 4 mM
[2]; oocytes, membrane potential −50 mV
  K0.5 (concentration inducing half-maximal current; Michaelis-Menten constant): 1.8 ± 0.4 mM
[3]
  Kt of OCTN2: 5 to 15 µM
[4]; HRPE cells
  Hill coefficient for Na+ activation of substrate transport: 1.6±0.1
  K0.5 for Na+ in substrate transport: 54 ± 4 mM
  Vmax of ATB^0,+-mediated transport: 72±2 nmol/10^6 cells/15 min
[4]; [11]
  Michaelis-Menten constant (Kt) of transport via mouse ATB^0,+: 0.83 ± 0.08 mM
  transport in ATB^0,+ cDNA-transfected cells compared to vector-transfected cells: 16 fold
[4]; carnitine 15 μM, HRPE cells
  reduction of transport on removal of Cl− (gluconate): ~60%
  transport when Na+ substituted with N-methyl-D-glucamine: completely abolished
[4]; summary of HRPE cell and oocyte values
  Kt of ATB^0,+ (discussion summary): 1 to 2 mM

## C[C@H](N)C(=O)O [Alanine]
[5]
  Ki: 101 ± 14.2 µM
[2]; L-amino acid 1 mM, NaCl pH 7.5
  Current in X. laevis oocytes (nA), L-isomer: 650 ± 86 nA
[6]
  Ki: 22.5 ± 4.2 µM

## lipopolysaccharide
[7]
  increase of ATB^0,+ mRNA versus saline-treated mice, colon: 2 fold
  increase of ATB^0,+ mRNA versus saline-treated mice, ileum: 7 fold

## N[C@H](C(=O)O)c1ccccc1 [Phenylglycine, L-phenylglycine]
[1]; from Ki values of Table 5
  affinity of ATB^0,+ relative to ATB^0: 4 times
  affinity of ATB^0,+ relative to affinity for glycine: 19 times
  affinity of ATB^0,+ relative to affinity for phenylalanine: 13 times
  affinity of ATB^0,+ relative to b^0,+AT: 53 times
[5]
  Ki: 5.3 ± 0.4 µM
[8]
  inhibition: 100%
[6]
  Ki: 19 ± 5.5 µM
[4]; HRPE cells, [14C]phenylglycine 10 μM or [8-3H]-valacyclovir 1.25 μM
  transport in ATB^0,+-expressing cells versus vector-transfected cells (in words): three times higher
[4]; [14C]phenylglycine 10 μM, HRPE cells
  cDNA-specific transport by ATB^0,+ relative to ATB^0 and mb^0,+AT: ten times higher

B1: mouse ATB^0,+ (Mus musculus) (protein)
chain: MDRLKCPNFFKCRQKEKVTASSENFHVGENDENQERGNWSKKSDYLLSMVGYAVGLGNVWRFPYLTYTNGGGAFLIPYAIMLALAGLPLFFLECSLGQFASLGPVSVWRILPLFQGVGITMVLISVFVAIYYNVIIAYSLYYLFASFQSVLPWANCSSWADENCSRTPIVTGCNVSIGAGEMFMNISWVNTNNLTCLNGSEVFRPGQLPSEQYWDKVTLQRSSGMDETGVVVWYLALCLLLAWLIVGAALFKGIKSSGKVVYFTALFPYVVLLILLIRGATLEGASKGISYYIGAQSNFTKLREAEVWKDAATQIFYSLSVAWGGLVALSSYNKFNNNCYSDAIIVCLTNCLTSVFAGFAIFSILGHMAHISGKEVSQVVKSGFDLAFIAYPEALAQLPAGPFWSILFFFMLLTLGLDSQFASIETITTTFQDLFPKAMKRMRVPITLGCCLILFLLGLLCVTQAGIYWVHLIDHFCAGWGILIAAILEIAGIIWIYGGNRFIEDIEMMIGAKRWIFWLWWRACWFVITPILLSAILVWSLVKFHRPDYADIPYPDWGVALGWCMIIFCIIWIPIMAIIKIVQAEGNILQRIISCCRPASNWGPYLEKHRGERYRDMAEPAKETDHEIPTISGSTKPE
[9]
  Km: 348 ± 5 µM
[10]
  Km: 106 ± 1 µM
